Assay [1] deals with T1, recombinant human FAK1 (Homo sapiens, UniProt Q05397).
T1 construct: fused on or other part: N-terminal 6xHis tag
The assay can be described thus: FAK1 HTRF assay. The class given is biochemical. The essentials: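 His-tagged human FAK1 (residues 692–end, Sf9-expressed), 10 nM final, with 0.5 μM biotinylated gastrin-precursor Tyr87 peptide and a 10 μM final reagent in pH 7.4 buffer, 45 min at rt. Detection used Eu anti-pTyr antibody plus SA-APC (665/620 nm). Compounds top concentration 10 μM; IC50 from % inhibition.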
For orientation: Time-resolved FRET reads energy transfer from a long-lived donor to a nearby acceptor.

For assay [2], the target named is T2, AURKB (Aurora B) enzyme (Homo sapiens, UniProt Q96GD4).
T2 construct: purchased Invitrogen PVR 130
The assay can be described thus: Aurora B HTRF assay. The class given is biochemical. The note with it: read-out: AuroraB IC50. The essentials: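 HTRF kinase assay with 5 nM Aurora B and 50 nM ULight-PLK (Ser137) peptide, with a reagent at 30 μM final; 1 h at rt. Reaction stopped with EDTA, and phospho-peptide detected with 2 nM Eu-anti-P-PLK(Ser137) antibody after 1 h at rt, read as HTRF.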

The target in assay [3] is T3, Phospho Src(Y416) (Homo sapiens, UniProt P12931).
T3 construct: endogenous in cells; host or cells: Panc1
As to the kind of experiment: Phospho Src(Y416) Sandwich ELISA. It counts as cell-based. The note with it: Panc1; read-out: pSrc EC50 (μM) Panc1. The protocol: E. Phospho Src(Y416) Sandwich ELISA
Phospho Src(Y416) Sandwich ELISA kit was obtained from Cell Signaling Tech.
(i) Reagent Preparation • 1. All microwell strips were brought to rt before use. • 2. 1× Wash Buffer was prepared by diluting 20× Wash Buffer (included in each PathScan® Sandwich ELISA Kit) in MilliQ® water or equivalently purified water. • 3. 1× Cell Lysis Buffer from CST #9803: 20 mM Tris (pH 7.5), 150 mM NaCl, 1 mM ethylene diamine tetraacetate (EDTA), 1 mM ethylene glycol-bis(2-aminoethyl)-N,N,N′,N′-tetraacetic acid (EGTA), 1% Triton™ X-100, 2.5 mM sodium pyrophosphate, 1 mM b-glycerophosphate, 1 mM Na3VO4, 1 μg/mL leupeptin. This buffer was stored at 4° C. for short-term use (1-2 weeks).
(ii) Preparing Cell Lysates • 1. The media was aspirated. The cells were treated by adding fresh media containing inhibitor for 1 h. The compound of Example 214 was used as reference. • 2. The cells were harvested under non-denaturing conditions by removing media and rinsing cells once with ice-cold PBS. • 3. PBS was removed, 0.5 mL ice-cold 1× Cell Lysis Buffer plus 1 mM phenylmethylsulfonylfluoride (PMSF) was added to each plate (10 cm in diameter) and the plate incubated on ice for 5 min. • 4. The cells were scraped off of the plate, transferred to an appropriate tube, and kept on ice. • 5. The lysates were sonicated on ice. • 6. Microcentrifugation was performed for 10 min at 4° C. and the supernatant transferred to a new tube. The supernatant was the cell lysate and was stored at −80° C. in single-use aliquots.
(iii) Test Procedure • 1. After the microwell strips reached rt, the required number of microwells were broken off. The microwells were placed in the strip holder. Unused microwells were resealed and stored at 4° C. immediately. • 2. 100 μL of Sample Diluent (supplied in each PathScan® Sandwich ELISA Kit, blue color) was added to a micro centrifuge tube. 100 μL of cell lysate was transferred into the tube and vortexed for a few seconds. […] Individual data sheets for each kit provided information regarding an appropriate dilution factor for lysates and kit assay results. However, dilution factors were titrated when specific cell lysates are used. • 3. 100 μL of each diluted cell lysate were added to the appropriate well. It was then sealed with tape and pressed firmly onto top of microwells. The plate was incubated for 2 h at 37° C. Alternatively, the plate was incubated overnight at 4° C., which gave the best detection of target protein. • 4. The tape was gently removed and the wells washed: • a. The plate contents were discarded into a receptacle. • b. Each well was washed 4 times with 1× Wash Buffer, 200 μL. • c. For each wash, plates were struck on fresh towels hard enough to remove the residual solution in each well, but wells were not allowed to completely dry at any time. • d. The underside of all wells was cleaned with a lint-free tissue. • 5. 100 μL of Detection Antibody (green color) was added to each well, sealed with tape and the plate incubated for 1 h at 37° C. • 6. The wash procedure was repeated as in Step 4. • 7. 100 μL of HRP-linked secondary antibody (red color) was added to each well, sealed with tape and the plate incubated plate for 30 min at 37° C. • 8. The wash procedure was repeated as in Step 4. • 9. 100 μL of TMB Substrate was added to each well, sealed with tape and the plate incubated for 10 min at 37° C. or 30 min at 25° C. • 10. 100 μL of STOP Solution was added to each well and shaken gently for a few seconds. Initial color of positive reaction was blue, which changed to yellow upon addition of STOP Solution. • 11. The results were read. • a. Visual Determination—read within 30 min after adding STOP Solution. • b. Spectrophotometric Determination—the underside of wells were wiped with a lint-free tissue and absorbance read at 450 nm within 30 min after adding STOP Solution.
(In general: An ELISA detects its analyte on a solid surface through an enzyme-linked reagent.)

Assay [4] has as its target JAK2 (Homo sapiens, UniProt O60674). As to the kind of experiment: JAK2 biochemical potency. Particulars: read-out: JAK2 HTRF IC50.
Assay [5] has as its target T4, FAK phosphorylated at Y397 in HEK-FAK cell line overexpressing human FL FAK protein (Homo sapiens, UniProt Q05397).
T4 construct: expressed in transfected cells
The assay can be described thus: Cell based assay, Phospho-FAK ELISA. The note with it: HEK stb; read-out: pFAK EC50 (μM) HEK stb. The essentials: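 Stable HEK293 line overexpressing full-length human FAK, kept under 0.8 mg/mL Zeocin. In lysates, FAK Y397 autophosphorylation was measured by sandwich ELISA: total-FAK capture antibody, biotinylated pY397-specific detection antibody, streptavidin-HRP with TMB substrate.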

The target of assay [6] is T5, Recombinant Src enzyme (Homo sapiens, UniProt P12931).
T5 construct: purchased Millipore 14-326; host or cells: Sf21 insect cells
As to the kind of experiment: Src HTRF assay. The class given is biochemical. In outline: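 Sf21-expressed recombinant Src at 5 nM final with biotinylated N-terminally tagged Tyk2 peptide substrate at 0.5 μM final; a component freshly made in enzyme assay buffer pH7.4 was used at 10 μM final. Buffer, supplements, compound handling and procedure as in the FAK HTRF assay; dasatinib included.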

A word on the IC50: it is the point on the concentration scale where inhibition reaches its midpoint. A word on the EC50: it is the concentration at which the effect is half-maximal.

T2 sequence (Q96GD4 whole entry): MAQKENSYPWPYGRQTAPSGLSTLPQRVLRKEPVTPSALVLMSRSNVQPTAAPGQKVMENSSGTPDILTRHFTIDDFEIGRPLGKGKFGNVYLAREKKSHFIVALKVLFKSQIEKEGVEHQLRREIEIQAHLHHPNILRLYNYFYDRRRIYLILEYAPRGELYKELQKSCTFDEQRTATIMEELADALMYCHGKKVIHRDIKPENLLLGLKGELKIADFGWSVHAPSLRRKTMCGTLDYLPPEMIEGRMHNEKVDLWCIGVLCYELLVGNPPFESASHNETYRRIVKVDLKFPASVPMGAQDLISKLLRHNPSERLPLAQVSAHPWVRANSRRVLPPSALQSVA
T4 sequence (Q05397 whole entry): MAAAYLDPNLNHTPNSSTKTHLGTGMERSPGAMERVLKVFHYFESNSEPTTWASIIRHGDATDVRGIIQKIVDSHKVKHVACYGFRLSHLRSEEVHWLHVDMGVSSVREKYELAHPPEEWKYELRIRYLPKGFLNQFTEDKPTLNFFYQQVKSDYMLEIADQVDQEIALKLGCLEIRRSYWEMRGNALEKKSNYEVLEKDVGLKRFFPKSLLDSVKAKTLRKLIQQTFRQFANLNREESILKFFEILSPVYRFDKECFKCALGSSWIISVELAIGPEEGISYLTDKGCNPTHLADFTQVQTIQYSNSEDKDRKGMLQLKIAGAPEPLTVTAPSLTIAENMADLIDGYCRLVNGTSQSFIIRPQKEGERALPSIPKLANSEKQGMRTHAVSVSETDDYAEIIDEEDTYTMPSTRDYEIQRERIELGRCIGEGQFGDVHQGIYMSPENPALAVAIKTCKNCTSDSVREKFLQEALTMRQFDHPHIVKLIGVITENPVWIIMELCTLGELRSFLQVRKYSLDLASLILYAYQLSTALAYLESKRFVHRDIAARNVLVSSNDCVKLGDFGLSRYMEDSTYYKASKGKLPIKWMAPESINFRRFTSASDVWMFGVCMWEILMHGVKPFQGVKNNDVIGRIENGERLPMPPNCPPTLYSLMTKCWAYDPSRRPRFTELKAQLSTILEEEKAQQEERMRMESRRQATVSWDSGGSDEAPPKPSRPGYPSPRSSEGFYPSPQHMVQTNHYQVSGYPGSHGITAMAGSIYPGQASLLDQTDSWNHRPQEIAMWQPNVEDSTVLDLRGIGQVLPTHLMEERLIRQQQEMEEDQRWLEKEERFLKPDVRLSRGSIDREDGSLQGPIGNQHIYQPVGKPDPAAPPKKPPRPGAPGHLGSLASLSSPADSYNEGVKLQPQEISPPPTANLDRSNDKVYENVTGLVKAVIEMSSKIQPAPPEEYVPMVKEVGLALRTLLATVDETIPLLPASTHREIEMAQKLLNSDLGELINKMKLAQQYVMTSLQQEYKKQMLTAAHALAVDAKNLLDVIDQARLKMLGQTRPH
JAK2, sequence (O60674 whole entry, species assumed): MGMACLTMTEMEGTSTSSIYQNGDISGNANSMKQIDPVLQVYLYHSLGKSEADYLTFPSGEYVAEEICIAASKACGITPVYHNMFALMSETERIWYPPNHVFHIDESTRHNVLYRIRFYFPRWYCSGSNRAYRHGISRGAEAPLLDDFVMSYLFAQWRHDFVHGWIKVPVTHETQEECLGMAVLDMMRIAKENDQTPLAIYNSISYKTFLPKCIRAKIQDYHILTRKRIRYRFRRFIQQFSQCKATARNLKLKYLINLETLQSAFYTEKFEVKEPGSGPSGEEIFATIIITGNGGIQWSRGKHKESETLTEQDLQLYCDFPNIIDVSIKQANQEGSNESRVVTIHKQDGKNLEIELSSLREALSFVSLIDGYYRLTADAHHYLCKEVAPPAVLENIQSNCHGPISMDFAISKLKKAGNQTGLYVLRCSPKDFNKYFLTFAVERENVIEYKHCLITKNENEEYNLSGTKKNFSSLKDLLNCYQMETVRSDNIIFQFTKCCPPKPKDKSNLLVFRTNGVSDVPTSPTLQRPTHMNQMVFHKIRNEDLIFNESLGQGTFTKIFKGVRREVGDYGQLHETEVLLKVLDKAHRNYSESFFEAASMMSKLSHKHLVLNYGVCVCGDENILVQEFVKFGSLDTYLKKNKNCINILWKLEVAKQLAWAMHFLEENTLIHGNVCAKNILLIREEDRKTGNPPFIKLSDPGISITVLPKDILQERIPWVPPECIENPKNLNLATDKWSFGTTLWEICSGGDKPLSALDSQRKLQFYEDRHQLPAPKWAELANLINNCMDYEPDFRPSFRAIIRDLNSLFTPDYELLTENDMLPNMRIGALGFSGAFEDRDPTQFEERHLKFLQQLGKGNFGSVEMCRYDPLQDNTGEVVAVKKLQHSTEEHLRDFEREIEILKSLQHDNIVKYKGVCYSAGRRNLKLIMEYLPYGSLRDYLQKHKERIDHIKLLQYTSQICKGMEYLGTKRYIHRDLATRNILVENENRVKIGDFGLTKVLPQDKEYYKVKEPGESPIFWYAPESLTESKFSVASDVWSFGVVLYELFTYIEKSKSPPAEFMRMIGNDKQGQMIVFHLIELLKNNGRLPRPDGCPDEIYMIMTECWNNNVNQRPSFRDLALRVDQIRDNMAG
T3 sequence (P12931 whole entry): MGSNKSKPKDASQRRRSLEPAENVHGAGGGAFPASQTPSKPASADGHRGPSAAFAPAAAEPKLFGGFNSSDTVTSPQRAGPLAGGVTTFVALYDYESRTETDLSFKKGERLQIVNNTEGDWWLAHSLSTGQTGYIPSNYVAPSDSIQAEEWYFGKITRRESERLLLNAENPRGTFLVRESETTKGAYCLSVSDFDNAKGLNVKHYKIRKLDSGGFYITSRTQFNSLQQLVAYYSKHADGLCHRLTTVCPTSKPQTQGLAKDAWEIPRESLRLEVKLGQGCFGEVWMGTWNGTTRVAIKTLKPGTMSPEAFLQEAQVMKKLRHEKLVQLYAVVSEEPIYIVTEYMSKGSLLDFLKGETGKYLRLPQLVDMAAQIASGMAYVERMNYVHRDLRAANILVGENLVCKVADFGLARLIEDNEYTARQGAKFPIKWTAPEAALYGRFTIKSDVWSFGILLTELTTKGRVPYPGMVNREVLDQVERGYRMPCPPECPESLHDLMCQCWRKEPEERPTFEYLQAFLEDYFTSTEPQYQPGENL
T1 sequence (Q05397 422-680 limits assumed): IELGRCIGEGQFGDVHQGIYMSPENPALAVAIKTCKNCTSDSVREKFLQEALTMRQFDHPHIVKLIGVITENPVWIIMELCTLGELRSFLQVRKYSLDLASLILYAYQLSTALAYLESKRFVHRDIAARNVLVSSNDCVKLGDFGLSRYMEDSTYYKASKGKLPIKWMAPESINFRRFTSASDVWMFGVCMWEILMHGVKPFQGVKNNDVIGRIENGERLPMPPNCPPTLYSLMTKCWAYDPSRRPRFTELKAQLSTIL
T5 sequence (P12931 whole entry): as the sequence (P12931 whole entry) above

Regarding `NC(=O)CN1CCC(c2ccc(Nc3ncc4ccn(S(=O)(=O)c5cccc6cccnc56)c4n3)cc2)CC1` [Example 256], the IC50 in assay [1] and in assay [2] was less than 0.02 µM throughout. Also, the EC50 in assay [3] is greater than 1 µM.

As to `CN(c1ccccc1Cn1ccc2cnc(Nc3ccc(C(=O)NCC(C)(C)O)c(F)c3)nc21)S(C)(=O)=O` [Example 508], in assay [4], the IC50 is less than 0.02 µM. Further, the EC50 in assay [5] and in assay [3] was greater than 1 µM in each case.

As to `CN(c1ccccc1Cn1ccc2cnc(Nc3ccc4c(c3)CC(=O)N4)nc21)S(C)(=O)=O` [Example 513], the IC50 in assay [1], in assay [2] and in assay [4] was less than 0.02 µM each time. Further, the concentration for a half-maximal effect (EC50) in assay [3] was greater than 1 µM.

For `CN(c1ncccc1Cn1ccc2cnc(Nc3ccc(N4CCC(CO)CC4)cc3)nc21)S(C)(=O)=O` [Example 559], the EC50 in assay [5] and in assay [3] was greater than 1 µM throughout.

As to `O=C1CCc2cc(Nc3ncc4ccn(Cc5ccccc5OC(F)F)c4n3)ccc2N1` [Example 18], the IC50 in assay [2] and in assay [4] was less than 0.02 µM throughout. Also, the EC50 in assay [3] was greater than 1 µM.

For `O=C(Nc1ccc(Nc2ncc3ccn(S(=O)(=O)c4cccc5cccnc45)c3n2)cc1)C1CC1` [Example 331], the IC50 in assay [1] and in assay [2] was less than 0.02 µM in each case. Further, the EC50 in assay [3] was greater than 1 µM.

`CN(c1ncccc1Cn1ccc2cnc(Nc3ccc(N4CCOCC4)cc3)nc21)S(C)(=O)=O` [Example 76]: the IC50 in assay [4] was less than 0.02 µM. For the same molecule, the EC50 in assay [3] is greater than 1 µM.

On to `O=C1CCc2cc(Nc3ncc4ccn(S(=O)(=O)c5ccccc5OC(F)(F)F)c4n3)ccc2N1` [Example 43], for which, in assay [4], the half-maximal inhibitory concentration (IC50) is less than 0.02 µM. For the same molecule, the EC50 in assay [3] is greater than 1 µM.

`C[C@@H]1CN(c2ccc(Nc3ncc4ccn(Cc5ccccc5N(C)S(C)(=O)=O)c4n3)cc2)CCN1C` [Example 486]: the IC50 in assay [1] and in assay [2] was less than 0.02 µM in each case. The EC50 in assay [3] was greater than 1 µM.

On to `Cc1cc(Nc2cc3c(ccn3S(=O)(=O)c3cccc4cccnc34)cn2)ccc1N1CCNCC1` [Example 334], for which the IC50 in assay [1] and in assay [2] was less than 0.02 µM in each case. Besides, the 50% effective concentration (EC50) in assay [3] was greater than 1 µM.

For `CN(c1ncccc1Cn1ccc2cnc(Nc3ccc(-c4cc[nH]c(=O)c4)cc3)nc21)S(C)(=O)=O` [Example 669], the EC50 in assay [5] and in assay [3] was greater than 1 µM throughout.

As to `CN(C)C1CN(c2ccc(Nc3ncc4ccn(Cc5cccnc5N(C)S(C)(=O)=O)c4n3)cc2F)C1` [Example 605], the EC50 in assay [5] and in assay [3] was greater than 1 µM in each case.

In the case of `Cn1cc(Nc2ncc3ccn(S(=O)(=O)c4ccccc4C#N)c3n2)cn1` [Example 317], the EC50 in assay [5] and in assay [3] was greater than 1 µM in each case.

As for `COC1CCN(c2ccc(Nc3ncc4ccn(S(=O)(=O)c5cccc6cccnc56)c4n3)cc2)CC1` [Example 412], the IC50 in assay [1] and in assay [2] was less than 0.02 µM each time. Also, in assay [3], the EC50 was greater than 1 µM.

As for `Cc1cn(S(=O)(=O)c2cccc3cccnc23)c2nc(Nc3ccc(N4CCC(N(C)C)CC4)cc3)ncc12` [Example 712], the IC50 in assay [1] and in assay [2] was less than 0.02 µM each time. Moreover, the EC50 in assay [3] was greater than 1 µM.

With `CN(C)S(=O)(=O)c1ccccc1Cn1ccc2cnc(Nc3ccc4c(c3)CCC(=O)N4)nc21` [Example 137], the IC50 in assay [1] and in assay [2] was less than 0.02 µM each time. Also, the EC50 in assay [3] was greater than 1 µM.

`CN(c1ncccc1Cn1ccc2cnc(Nc3ccc(N4CCN(C5CC5)CC4)cc3)nc21)S(C)(=O)=O` [Example 659]: the EC50 in assay [5] and in assay [3] was greater than 1 µM each time.

In the case of `CN(c1ncccc1Cn1ccc2cnc(Nc3cccc(N4CCNCC4)c3)nc21)S(C)(=O)=O` [Example 176], the IC50 in assay [2] and in assay [4] was less than 0.02 µM throughout. Also, the concentration giving a half-maximal response (EC50) in assay [3] is greater than 1 µM.

For `O=C1CCc2cc(Nc3cc4c(cn3)cnn4Cc3ccccc3OC(F)F)ccc2N1` [Example 65], the results for the IC50 in assay [6] and in assay [2] were less than 0.02 µM and greater than 1 µM, respectively. Further, the EC50 in assay [3] was greater than 1 µM.

For `CN(c1ncccc1Cn1ccc2cnc(Nc3ccc(N4CCNCC4)c(F)c3)nc21)S(C)(=O)=O` [Example 195], in assay [4], the IC50 is less than 0.02 µM. Further, the EC50 is greater than 1 µM in assay [5] and less than 0.02 µM in assay [3].

For the molecule `N#Cc1ccccc1S(=O)(=O)n1ncc2cnc(Nc3ccc(N4CCNCC4)cc3)cc21` [Example 191], the 50% inhibitory concentration (IC50) in assay [4] is greater than 1 µM. Moreover, the EC50 in assay [5] and in assay [3] was greater than 1 µM throughout.

For `CN(c1ccccc1Cn1ccc2cnc(Nc3ccc(NC(=O)C(C)(C)O)cc3)nc21)S(C)(=O)=O` [Example 452], the EC50 in assay [5] and in assay [3] was greater than 1 µM throughout.

`O=C1CCc2cc(Nc3ncc4ccn(S(=O)(=O)c5ccccc5Cl)c4n3)ccc2N1` [Example 199]: the IC50 in assay [1] and in assay [2] was less than 0.02 µM throughout. Also, in assay [3], the EC50 was greater than 1 µM.

Take `O=S(=O)(c1cccc2cccnc12)n1ccc2cnc(Nc3ccc(N4CCC(O)CC4)cc3)nc21` [Example 310]: the IC50 in assay [1], in assay [2] and in assay [4] was less than 0.02 µM each time. Further, the EC50 in assay [3] was greater than 1 µM.

Consider `CC(=O)Nc1ccc(Nc2ncc3ccn(S(=O)(=O)c4cccc5cccnc45)c3n2)cc1` [Example 307], for which the IC50 in assay [1], in assay [2] and in assay [4] was less than 0.02 µM in each case. In addition, the EC50 in assay [3] is greater than 1 µM.

For `CC(=O)N1CCN(c2ccc(Nc3ncc4ccn(Cc5ccccc5N(C)S(C)(=O)=O)c4n3)cc2)CC1` [Example 465], the IC50 in assay [1] and in assay [2] was less than 0.02 µM throughout. In assay [3], the EC50 was greater than 1 µM.

Consider `CN(c1ncccc1Cn1ccc2cnc(Nc3cccc(NC(=O)C(C)(C)O)c3)nc21)S(C)(=O)=O` [Example 79], for which the IC50 in assay [4] is less than 0.02 µM. Also, in assay [3], the EC50 is greater than 1 µM.

Regarding `CN(c1ncccc1Cn1ccc2cnc(Nc3cccc4ncccc34)nc21)S(C)(=O)=O` [Example 160], in assay [6], the half-maximal inhibitory concentration (IC50) is greater than 1 µM. In assay [3], the EC50 is greater than 1 µM.
